Counter-ions that a name gives are not always drawn. Like-named read-outs stand apart in the source and are kept apart here.

A short description of data set [1]: Screening test for inhibition of precipitation or gelation of sertraline lactate when chloride is added. Format: physicochemical.
Method: Sodium chloride was then added (as a concentrated solution) and the result observed. An excipient was considered beneficial if the solution remained clear and fluid. The more chloride that could be added to an excipient solution with the solution remaining dear, the more beneficial was the excipient.
Data set [2] is described as follows: physchem. The note with it: water, Sertraline Lactate Solubility, in water, excipient None.
Data set [3] in a line: Screening of solubilizers for sertraline lactate solubility with and without chloride. The conditions noted are these: water.
Data set [4] is described as follows: physchem. The note with it: water.
Data set [5] can be described thus: Pharmacokinetics of 200 mg sertraline delivered to various portions of the gastrointestinal tract (four-way crossover). Format: in vivo. The conditions noted are these: human, plasma.
Method: Dosing was via (1) oral tablets, or (2) infusion of a solution through a nasoenteric tube into the stomach, duodenum, or ileocecal region of the small intestine, or (3) infusion into the transverse colon via anal intubation.
The infusions were administered as a 2 mg/ml solution at a rate of 20 ml/min for 5 min.
Analysis was carried out by capillary gas chromatography with electron capture detection.
Data set [6] is described as follows: Side effects by visual analogue scales and PK/PD plots (Study I, Study II). Format: in vivo, human.
Method: (§1) In a subset of a larger double-blind, randomized, placebo-controlled parallel group study, healthy male human subjects were divided into two groups (Study 1). […] The tablets were administered with 50 ml water. Group B received two placebo tablets. All subjects were dosed after an overnight fast.
Prior to dosing and each blood sampling time, each subject filled out a questionnaire, which consisted of a series of "Visual Analogue Scales" in which the subject was required to rate, on a scale of 0-10, the severity of certain potential side effects. The subjects were instructed that "0" indicated an absent effect and "10" indicated the worst possible effect The subjects were instructed to interpolate between 0 and 10 for moderate side effects.
A total of 30 subjects completed Study I: 15 each in Groups A and B. For each side effect evaluated at 30 time points, a total of 900 individual visual-analogue-scale evaluations were obtained.
The conditions of data set [7]: male, human, in vivo.
Method: as §1
(§2) Analysis was carried out by capillary gas chromatography with electron capture detection. […] Tmax is the time at which Cmax is achieved.
(§3) The data from these four subjects were not included in the pharmacokinetic averages.
The conditions of data set [8]: oral administration of known immediate-release dosage forms, plasma; cited from earlier work.
The nature of a further data set: clinical. The conditions noted are these: human, in vivo, 200 mg.
[9] abbreviates: Group A, Ileocecal Infusion of 2 mg/ml solution.
[10] abbreviates: Group A, Stomach Infusion of 2 mg/ml solution.
The mark [11] stands for this setting: Group B, Colonic Infusion of 2 mg/ml solution.
[12] abbreviates: Group B, Duodenal Infusion of 2 mg/ml solution.

Method for clinical: as §1, §2, §3

With `N[C@@H](Cc1c[nH]cn1)C(=O)O` [Histidine], the “Observation After NaCI Addition” value in data set [1] (sertraline lactate with excipient, NaCl 150 mM) is “slight precipitate”.

Take `CN[C@H]1CC[C@@H](c2ccc(Cl)c(Cl)c2)c2ccccc21` [sertraline lactate]: the “Observation After NaCI Addition” value in data set [1] (sertraline lactate in water alone (control), NaCl 38 mM) is listed as “gel/precipitate”. For the same compound, the solubility was roughly 125 mg/mL in the data set “physchem [2]” and 125 mg/mL in data set [3].

In the data set “physchem [4]”, `CN[C@H]1CC[C@@H](c2ccc(Cl)c(Cl)c2)c2ccccc21` [sertraline hydrochloride] displayed a solubility of 2500 µg/mL.

Consider `O=C1O[C@H]([C@@H](O)CO)C(O)=C1O` [Ascorbic acid], for which, in data set [1] (sertraline lactate with excipient, NaCl 100 mM), the “Observation After NaCI Addition” value was “predpitate”.

On to `CN[C@H]1CC[C@@H](c2ccc(Cl)c(Cl)c2)c2ccccc21` [sertraline], for which the Cmax came to 27.3 ng/mL in [5] (setting [9]); 35.6 ng/mL in data set [5] (setting [10]); 10.9 ng/mL in data set [5] (Group B, Colonic Infusion (transverse colon) of 2 mg/ml solution); 48.8 ng/mL in [5] (setting [12]); 39.9 ng/mL in data set [5] (po, Group A, Oral Tablet (two 100 mg immediate release tablets), group average); 44.7 ng/mL in data set [5] (po, Group B, Oral Tablet (two 100 mg immediate release tablets)). In “clinical” (male), this compound returned a Cmax of roughly 70 ng/mL. In addition, the time of peak concentration (Tmax) came out at 5 h in data set [5] (setting [9]); 7 h in data set [5] (setting [10]); 4.4 h in data set [5] (setting [11]); 3.7 h in data set [5] (setting [12]); 7 h in data set [5] (po, Group A, Oral Tablet, group average); 6.7 h in data set [5] (po, Group B, Oral Tablet). Moreover, the Tmax in data set [8] is 6 to 7 h. Besides, the AUC stood at 179 ng·h/mL in [5] (setting [11]); 1270 ng·h/mL in [5] (setting [12]); 1150 ng·h/mL in data set [5] (po, Group B, Oral Tablet); 1740 ng·h/mL in the data set “clinical”. For the same compound, the “side effect score for diarrhea vs plasma sertraline concentration curve” value in [6] (Study 1, 200 mg bolus dose) is “clockwise hysteresis”. Besides, in data set [6] (Study I, Group A, 200 mg bolus dose, Figure 1), the “PK/PD plot, average visual analogue score for nausea vs plasma sertraline concentration” value is reported as “clockwise hysteresis”. In addition, the “subjects with emesis (regurgitation)” value in [6] (Study II, 200 mg dose group) was “Four and four”. Moreover, in data set [7], the “average Tmax” value is 6 h.

Source of the values: patent EP1007024B1 (Pfizer Products Inc., priority 1997, dated 1999).
